Data on 15 compounds can be found in patent publication US8143237B2, “Anti-cancer drugs, and uses relating for malignant melanoma and other cancers” (Kasina Laila Innova Pharmaceuticals Private Limited, priority 2009, dated 2012).

Converted amounts (≈) assume the structure as drawn.

Series [1] relates to mouse malignant melanoma B16 F0 cells. In words: MTT based cell proliferation assay, B16 F0 cells. The settings on record: Mus musculus, B16F0, 72 h, MTT; for inhibition at 100 µg/mL: at 100 μg/ml; for inhibition at 100 µg/mL / inhibition at 60 µg/mL: three days; for inhibition at 60 µg/mL: at 60 μg/ml. The procedure:
(§1) The cytotoxic efficacies of the various selenopheno triazene compounds (compounds 1 to 16) was evaluated in both human malignant melanoma A375 cells and mouse malignant melanoma B16 F0 cells by MTT cell proliferation assay kit (Roche Applied Sciences, Germany). The assay was carried out according to the instruction provided by the vendor. Briefly, equal numbers of cells was plated in 96-well flat-bottomed plates and were incubated with both DTIC and the test compounds (compounds 1 to 16) at various concentrations for a period of three days. […] Finally, the cells were solubilized by adding solubilizing solution and allowed to incubate at 37° C. overnight. After complete solubilization of the formazan crystals, the absorbance was read at 540 nm in a microplate reader (BioRad, USA).

Series [2] has as its system human malignant melanoma A375 cells. In words: MTT based cell proliferation assay, A375 cells. The settings on record: A-375, 72 h, at 10 μg/ml, three days. The protocol: as §1

By melting point is commonly meant the temperature of the solid-liquid transition. By inhibition is commonly meant the share of the control response that was lost under treatment. A higher inhibition goes with a strong effect.

As to `CN(C)/N=N/c1cc(C(N)=O)[se]c1C(N)=O` [Compound 2, 3-[(dimethylamino)diazenyl]selenophene-2,5-dicarboxamide], the melting point was 266 to 268 °C.
`CN(C)/N=N/c1cc(-c2ccccc2)[se]c1C(N)=O` [Compound 3, 3-[(dimethylamino)diazenyl]-5-phenylselenophene-2-carboxamide] yielded a melting point of 222 to 224 °C. This compound also returned an inhibition at 100 µg/mL in series [1] of 30%. Moreover, at 10 µg/mL the inhibition in series [2] was 14%.
The compound `CN(C)/N=N/c1cc(C(C)(C)C)[se]c1C(N)=O` [Compound 4, 3-[(dimethylamino)diazenyl]-5-(tert-butyl)selenophene-2-carboxamide] displayed a melting point of 218 to 220 °C. The compound further yielded an inhibition at 60 µg/mL in series [1] of 34%. In addition, the inhibition at 10 µg/mL in series [2] came out at 0.5%.
The compound `CN(C)/N=N/c1c(C(N)=O)[se]c2c1CCCC2` [Compound 5, 3-[(dimethylamino)diazenyl]-4,5,6,7-tetrahydrobenzo[1,2-b]selenophene-2-carboxamide] came in with a melting point of 198 to 202 °C. Moreover, the inhibition at 60 µg/mL in series [1] was 0.41%.
For `CN(C)/N=N/c1c(C(N)=O)[se]c2ncccc12` [Compound 6, 3-[(dimethylamino)diazenyl]selenopheno[2,3-b]pyridine-2-carboxamide] the same measures were 230 to 232 °C and 4%.
In the case of `CN(C)/N=N/c1cc(-c2ccccc2)[se]c1C(=O)O` [Compound 7, 3-[(dimethylamino)diazenyl]-5-phenylselenophene-2-carboxylic acid], the melting point lay within 212 to 214 °C. This compound also gave an inhibition at 100 µg/mL in series [1] of 5%.
`CN(C)/N=N/c1cc(C(C)(C)C)[se]c1C(=O)O` [Compound 8, 3-[(dimethylamino)diazenyl]-5-(tert-butyl)selenophene-2-carboxylic acid] displayed a melting point of 120 to 122 °C. Moreover, in series [1] (three days incubation, read-out: Cell proliferation inhibition in B16F0 cells, IC50), the IC50 came out at 43.6 µg/mL (≈ 144 µM). The inhibition at 10 µg/mL in series [2] is 24%.
For the compound `CN(C)/N=N/c1c(C(=O)O)[se]c2c1CCCC2` [Compound 9, 3-[(dimethylamino)diazenyl]-4,5,6,7-tetrahydrobenzo[1,2-b]selenophene-2-carboxylic acid], the melting point was 100 to 102 °C. In series [1], the inhibition at 60 µg/mL came to 32%.
For `CN(C)/N=N/c1c(C(=O)O)[se]c2ncccc12` [Compound 10, 3-[(dimethylamino)diazenyl]selenopheno[2,3-b]pyridine-2-carboxylic acid], the melting point was in the range of 172 to 174 °C. Also, in series [1], the inhibition at 60 µg/mL is 12%.
For `CN(C)/N=N/c1cc(C(C)(C)C)[se]c1C#N` [Compound 11, 3-[(dimethylamino)diazenyl]-5-(tert-butyl)selenophene-2-carbonitrile], in that order: 58 to 60 °C and 48%.
Compound `Cn1nnc2cc(-c3ccccc3)[se]c2c1=O` [Compound 12, 3-methyl-6-phenylselenopheno[3,2-d]1,2,3-triazin-4-one] came in with a melting point of 232 to 234 °C. This compound gave an inhibition at 100 µg/mL in series [1] of 27%.
In turn, `Cn1nnc2cc(C(C)(C)C)[se]c2c1=O` [Compound 13, 6-(tert-butyl)-3-methylselenopheno[3,2-d]1,2,3-triazin-4-one] yielded a melting point of 98 to 100 °C. The inhibition at 60 µg/mL in series [1] worked out at 33%.
In series [1], `Cn1nnc2c3c([se]c2c1=O)CCCC3` [Compound 14, 3-methyl-6,7,8,9-tetrahydrobenzo[1,2-b]1,2,3-triazino[4,5-d]selenophen-4-one] returned an inhibition at 60 µg/mL of 17%.
As for `Cn1nnc2c([se]c3ncccc32)c1=O` [Compound 15, 3-methyl-1,2,3-triazino[4′,5′-5,4]selenopheno[2,3-b]pyridine-4-one], the melting point was 202 to 204 °C.
Regarding `Cn1nnc2c([se]c3ccccc32)c1=O` [Compound 16, 3-methylbenzo[b]1,2,3-triazino[4,5-d]selenophen-4-one], the melting point lay within 190 to 192 °C. This compound displayed an inhibition at 60 µg/mL in series [1] of 31%.
